Like-named read-outs stand apart in the source and are kept apart here.

This data set in a line: logP determination by HPLC (EEC Directive 79/831 Annex V. A8). Type of data set: physicochemical. The procedure:
logP value is determined in accordance with EEC Directive 79/831 Annex V. A8 by HPLC (gradient method, acetonitrile/0.1% aqueous phosphoric acid)

Where [1] appears, read: HPLC, gradient method, acetonitrile/0.1% aqueous phosphoric acid, read-out: logP.

As to `CC1CCN(c2c(-c3ccc(F)cc3Cl)c(Cl)nc3c(C#N)cnn23)CC1` [Example 543, 3-cyano-5-chloro-6-(2-chloro-4-fluorophenyl)-7-(4-methylpiperidino)pyrazolo[1,5-a]pyrimidine], the chromatographic logP (pH=2.3, read-out: log P(pH=2.3)) came to 4.88. In the case of `CC1CCN(c2c(-c3ccc(F)cc3Cl)c(Cl)nc3c(CO)cnn23)CC1` [Example 1, 3-hydroxymethyl-5-chloro-6-(2-chloro-4-fluorophenyl)-7-(4-methylpiperidino)pyrazolo[1,5-a]pyrimidine], the chromatographic logP under setting [1] was found to be 3.89. Same read-out and setting: the value for `CCC1COC(c2cnn3c(NC(C)C(C)(C)C)c(-c4ccc(F)cc4Cl)c(Cl)nc23)O1` (stereo not drawn) [Example 23] was 5.7. With `CC1CCN(c2c(-c3ccc(F)cc3Cl)c(Cl)nc3c(C=O)cnn23)CC1` [Example 541, 3-formyl-5-chloro-6-(2-chloro-4-fluorophenyl)-7-(4-methylpiperidino)pyrazolo[1,5-a]pyrimidine], the chromatographic logP (HPLC, gradient of acetonitrile/0.1% aqueous phosphoric acid, pH=2.3, read-out: log P(pH=2.3)) came out at 4.53. In the case of `COCc1cnn2c(N3CCC(C)CC3)c(-c3ccc(F)cc3Cl)c(Cl)nc12` [Example 2, 3-methoxymethyl-5-chloro-6-(2-chloro-4-fluorophenyl)-7-(4-methylpiperidno)pyrazolo[1,5-a]pyrimidine], the chromatographic logP under setting [1] was found to be 5.09. Take `CC(Nc1c(-c2ccc(F)cc2Cl)c(Cl)nc2c(C=O)cnn12)C(C)(C)C` (stereo not drawn) [Example 542, 3-formyl-5-chloro-6-(2-chloro-4-fluorophenyl)-7-(3,3-dimethylbut-2-ylamino)pyrazolo[1,5-a]pyrimidine]: the chromatographic logP (HPLC (gradient method), per EEC Directive 79/831 Annex V. A8, two values, one per atropisomer, read-out: log P (atropisomers)) came out at 4.47.

The values are drawn from patent publication US20070197540A1, “Pyrazolopyrimidines” (priority 2003, published 2007).
